pIC50: −log10 of the molar value.

Drawing on patent US20250215029A1 (Recludix Pharma, Inc., priority 2022, published 2025), this text covers IC50 for 15 compounds.

In the test the target is T1, pY641-STAT6 in PBMC (Homo sapiens, UniProt P42226).
T1 construct: Cryopreserved Peripheral Blood Mononuclear Cells (PBMC) are from AllCells; host or cells: cryopreserved PBMC
T1 sequence (P42226 1-847): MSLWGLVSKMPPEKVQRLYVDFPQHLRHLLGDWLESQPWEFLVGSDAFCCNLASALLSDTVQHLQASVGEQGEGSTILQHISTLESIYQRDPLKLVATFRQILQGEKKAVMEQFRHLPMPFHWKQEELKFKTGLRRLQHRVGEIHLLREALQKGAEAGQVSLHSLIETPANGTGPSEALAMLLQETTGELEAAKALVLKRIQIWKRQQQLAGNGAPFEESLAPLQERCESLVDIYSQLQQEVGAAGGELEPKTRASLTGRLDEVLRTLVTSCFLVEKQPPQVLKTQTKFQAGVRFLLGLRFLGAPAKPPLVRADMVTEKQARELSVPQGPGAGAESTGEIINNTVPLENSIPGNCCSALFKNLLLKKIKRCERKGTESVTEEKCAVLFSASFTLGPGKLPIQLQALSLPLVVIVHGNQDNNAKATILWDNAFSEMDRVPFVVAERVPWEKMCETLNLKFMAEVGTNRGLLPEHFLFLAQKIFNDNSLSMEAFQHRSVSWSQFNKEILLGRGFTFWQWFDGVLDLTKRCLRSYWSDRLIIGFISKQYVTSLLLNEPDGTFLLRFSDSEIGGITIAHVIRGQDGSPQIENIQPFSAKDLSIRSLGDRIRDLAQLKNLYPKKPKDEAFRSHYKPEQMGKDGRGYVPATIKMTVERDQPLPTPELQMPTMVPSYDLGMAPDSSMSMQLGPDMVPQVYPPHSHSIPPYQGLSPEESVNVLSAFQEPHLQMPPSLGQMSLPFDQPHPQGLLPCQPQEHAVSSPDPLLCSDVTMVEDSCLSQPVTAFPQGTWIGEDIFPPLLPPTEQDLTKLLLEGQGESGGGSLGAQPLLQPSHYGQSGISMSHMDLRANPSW
In words: MSD-pSTAT-PBMC Assay (pSTAT6, IL-4 stimulated). It is filed as cell-based. The settings on record: STAT6, PBMC, compound 3 hrs, then 1 ng/mL IL-4 for 10 min; Table 115. In a few lines:
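PBMC (human, cryopreserved, overnight recovery) + cpd 3 hrs → IL-6 10 ng/mL (STAT3) or IL-4 1 ng/mL (STAT6) ×10 min → lysis with protease/phosphatase inhibitors → MSD capture/phospho detection. IC50, variable slope, DMSO-normalized.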
For the compound `CCCOC(=O)[C@H](C)NP(=O)(Oc1ccccc1)C(F)c1ccc2sc(C(=O)N[C@H]3CCCCC[C@H]4[C@H](O)C[C@@H](C(=O)N5CC(C#N)[C@H](c6ccccc6)C5)N4C3=O)cc2c1` (relative stereo) [Compound 270, propyl (((2-(((1R,3S,6S,11aS)-3-((rel-trans)-3-cyano-4-phenylpyrrolidine-1-carbonyl)-1-hydroxy-5-oxodecahydro-1H-pyrrolo[1,2-a]azonin-6-yl)carbamoyl)benzo [b]thiophen-5-yl)fluoromethyl) (phenoxy)phosphoryl)-L-alaninate], the pIC50 (in general, the IC50 on a negative log10 scale, so that one unit is a factor of ten) is 6.00 to 7.00.

Compound `CCCOC(=O)[C@H](C)NP(=O)(Oc1ccccc1)C(F)c1ccc2ccc(C(=O)N[C@H]3CCCC[C@H]4CC[C@@H](C(=O)N5CCC(F)(c6ccn(C)c(=O)c6)C5)N4C3=O)cc2c1` (stereo partly drawn) [Compound 451, propyl ((fluoro(7-(((3S,6S,10aS)-3-(3-fluoro-3-(1-methyl-2-oxo-1,2-dihydropyridin-4-yl)pyrrolidine-1-carbonyl)-5-oxodecahydropyrrolo [1,2-a]azocin-6-yl)carbamoyl)naphthalen-2-yl)methyl)(phenoxy)phosphoryl)-L-alaninate] had a pIC50 of 6.00 to 7.00.

`CCCOC(=O)[C@H](C)NP(=O)(Oc1ccccc1)[C@H](F)c1ccc2sc(C(=O)N[C@H]3CC[C@H](N4CCC4)C[C@H]4CC[C@@H](C(=O)N5C[C@@H](c6ccccc6)[C@H](C#N)C56CC6)N4C3=O)cc2c1` (stereo partly drawn) [Compound 492, propyl (((S)-(2-(((3S,6S,9S,10aR)-9-(azetidin-1-yl)-3-((6R,7S)-7-cyano-6-phenyl-4-azaspiro[2.4]heptane-4-carbonyl)-5-oxodecahydropyrrolo [1,2-a]azocin-6-yl)carbamoyl)benzo [b]thiophen-5-yl)fluoromethyl) (phenoxy)phosphoryl)-L-alaninate] showed a pIC50 above 7.00.

For `CCCOC(=O)[C@H](C)NP(=O)(Oc1ccccc1)C(F)c1ccc2sc(C(=O)N[C@H]3CCCC[C@H]4CC[C@@H](C(=O)N5C(=O)N(c6cccnc6)CC56CC6)N4C3=O)cc2c1` (stereo partly drawn) [Compound 467, propyl ((fluoro(2-(((3S,6S,10aS)-5-oxo-3-(5-oxo-6-(pyridin-3-yl)-4,6-diazaspiro[2.4]heptane-4-carbonyl)decahydropyrrolo[1,2-a]azocin-6-yl)carbamoyl)benzo [b]thiophen-5-yl)methyl)(phenoxy)phosphoryl)-L-alaninate], the pIC50 is below 5.52.

As for `CCCOC(=O)[C@H](C)NP(=O)(Oc1ccccc1)C(F)c1ccc2ccc(C(=O)N[C@H]3CCCC[C@H]4CC[C@@H](C(=O)N5CC(c6ccccc6)CC56CC6)N4C3=O)cc2c1` (stereo partly drawn) [Compound 411, propyl ((fluoro(7-(((3S,6S,10aS)-5-oxo-3-(6-phenyl-4-azaspiro[2.4]heptane-4-carbonyl)decahydropyrrolo[1,2-a]azocin-6-yl)carbamoyl)naphthalen-2-yl)methyl)(phenoxy)phosphoryl)-L-alaninate], the pIC50 was above 7.00.

Consider `CCCOC(=O)[C@H](C)NP(=O)(Oc1ccccc1)C(C)(F)c1ccc2sc(C(=O)N[C@H]3CCCC[C@H]4CC[C@@H](C(=O)N5CCC(c6cccnc6)C5)N4C3=O)cc2c1` (stereo partly drawn) [Compound 314, propyl ((1-fluoro-1-(2-(((3S,6S,10aS)-5-oxo-3-(3-(pyridin-3-yl)pyrrolidine-1-carbonyl)decahydropyrrolo[1,2-a]azocin-6-yl)carbamoyl)benzo [b]thiophen-5-yl)ethyl)(phenoxy)phosphoryl)-L-alaninate], for which the pIC50 was below 5.52.

The compound `COCCOC(=O)[C@H](COC)NP(=O)(Oc1ccccc1)[C@@H](F)c1ccc2sc(C(=O)N[C@H]3CCCC[C@H]4CC[C@@H](C(=O)N5C[C@H](c6ccccc6)[C@@H](C#N)C56CC6)N4C3=O)cc2c1` (stereo partly drawn) [Compound 376, 2-methoxyethyl N-(((R)-(2-(((3S,6S,10aS)-3-((6S,7R)-7-cyano-6-phenyl-4-azaspiro[2.4]heptane-4-carbonyl)-5-oxodecahydropyrrolo [1,2-a]azocin-6-yl)carbamoyl)benzo [b]thiophen-5-yl)fluoromethyl) (phenoxy)phosphoryl)-O-methyl-L-serinate] gave a pIC50 above 7.00.

As for `CCCOC(=O)[C@H](C)NP(=O)(Oc1ccccc1)[C@@H](F)c1ccc2sc(C(=O)N[C@H]3CCCC[C@H]4CC[C@@H](C(=O)N5C(=O)N(c6ccc(C)nc6)C(=O)C56CC6)N4C3=O)cc2c1` (stereo partly drawn) [Compound 328, propyl (((R)-fluoro(2-(((3S,6S,10aS)-3-(6-(6-methylpyridin-3-yl)-5,7-dioxo-4,6-diazaspiro[2.4]heptane-4-carbonyl)-5-oxodecahydropyrrolo [1,2-a]azocin-6-yl)carbamoyl)benzo [b]thiophen-5-yl)methyl)(phenoxy)phosphoryl)-L-alaninate], the negative-log IC50 (pIC50) was 6.00 to 7.00.

The compound `CCCOC(=O)[C@H](C)NP(=O)(Oc1ccccc1)[C@@H](F)c1ccc2sc(C(=O)N[C@H]3CCC[C@H]4CC[C@@H](C(=O)N5C[C@H](c6cncc(Cl)c6)[C@@H](C#N)C56CC6)N4C3=O)cc2c1` (single isomer, unassigned) [Compound 367] showed a pIC50 of 6.00 to 7.00.

The compound `CCCOC(=O)[C@H](C)NP(=O)(Oc1ccccc1)[C@@H](F)c1ccc2sc(C(=O)N[C@H]3CC[C@H](N4CCC4)C[C@H]4CC[C@@H](C(=O)N5C[C@H](c6ccccc6)[C@@H](C#N)C56CC6)N4C3=O)cc2c1` (stereo partly drawn) [Compound 490, propyl (((R)-(2-(((3S,6S,9S,10aR)-9-(azetidin-1-yl)-3-((6S,7R)-7-cyano-6-phenyl-4-azaspiro[2.4]heptane-4-carbonyl)-5-oxodecahydropyrrolo [1,2-a]azocin-6-yl)carbamoyl)benzo [b]thiophen-5-yl)fluoromethyl) (phenoxy)phosphoryl)-L-alaninate] gave a negative logarithm of the IC50 (pIC50) of 6.00 to 7.00.

As for `CCCOC(=O)[C@H](COC)NP(=O)(Oc1ccccc1)[C@@H](F)c1ccc2sc(C(=O)N[C@H]3CCCC[C@H]4CC[C@@H](C(=O)N5C[C@@H](c6cccnc6)CC56CC6)N4C3=O)cc2c1` (stereo partly drawn) [Compound 384, propyl N-(((R)-fluoro(2-(((3S,6S,10aS)-5-oxo-3-((R)-6-(pyridin-3-yl)-4-azaspiro[2.4]heptane-4-carbonyl)decahydropyrrolo[1,2-a]azocin-6-yl)carbamoyl)benzo [b]thiophen-5-yl)methyl)(phenoxy)phosphoryl)-O-methyl-L-serinate], the negative logarithm of the IC50 (pIC50) was above 7.00.

The compound `C[C@H](NP(=O)(Oc1ccccc1)[C@@H](F)c1ccc2sc(C(=O)N[C@H]3CCCC[C@H]4CC[C@@H](C(=O)N5C[C@@H](c6cccnc6)CC56CC6)N4C3=O)cc2c1)C(=O)OCC1(C)COC1` (stereo partly drawn) [Compound 386, (3-methyloxetan-3-yl)methyl (((R)-fluoro(2-(((3S,6S,10aS)-5-oxo-3-((R)-6-(pyridin-3-yl)-4-azaspiro[2.4]heptane-4-carbonyl)decahydropyrrolo[1,2-a]azocin-6-yl)carbamoyl)benzo [b]thiophen-5-yl)methyl)(phenoxy)phosphoryl)-L-alaninate] had a negative logarithm of the IC50 (pIC50) above 7.00.

For `CCCOC(=O)[C@H](C)NP(=O)(Oc1ccccc1)[C@@H](F)c1ccc2sc(C(=O)N[C@H]3CCCC[C@H]4CC[C@@H](C(=O)N5C[C@H](c6cccc(OC(F)F)c6)C(C#N)C56CC6)N4C3=O)cc2c1` (relative stereo) [Compound 338, propyl (((R)-(2-(((3S,6S,10aS)-3-((rel-trans)-7-cyano-6-(3-(difluoromethoxy)phenyl)-4-azaspiro[2.4]heptane-4-carbonyl)-5-oxodecahydropyrrolo [1,2-a]azocin-6-yl)carbamoyl)benzo [b]thiophen-5-yl)fluoromethyl) (phenoxy)phosphoryl)-L-alaninate], the pIC50 was above 7.00.

With `CCCOC(=O)[C@H](C)NP(=O)(Oc1ccccc1)C(C)c1ccc2ccc(C(=O)N[C@H]3CCCC[C@H]4CC[C@@H](C(=O)N5C[C@@H](c6ccccc6)CC56CC6)N4C3=O)cc2c1` (single isomer, unassigned) [Compound 425], the pIC50 is below 5.52.

Compound `CCCOC(=O)[C@H](C)NP(=O)(Oc1ccccc1)[C@@H](F)c1ccc2sc(C(=O)N[C@H]3CCCC[C@H]4CC[C@@H](C(=O)N5C(=O)N(c6ccc(C(F)(F)F)nc6)C(=O)C56CC6)N4C3=O)cc2c1` (stereo partly drawn) [Compound 327, propyl (((R)-(2-(((3S,6S,10aS)-3-(5,7-dioxo-6-(6-(trifluoromethyl)pyridin-3-yl)-4,6-diazaspiro[2.4]heptane-4-carbonyl)-5-oxodecahydropyrrolo [1,2-a]azocin-6-yl)carbamoyl)benzo [b]thiophen-5-yl)fluoromethyl) (phenoxy)phosphoryl)-L-alaninate] showed a pIC50 below 5.52.
